Marks after values point to notes of the source that are not given here.
Legend:
[1] = system: A2058 melanoma; assay: In vivo growth of A2058 melanoma xenografts in nu/nu mice; design: species or system human
[2] = system: BxPC-3 pancreatic cancer; assay: In vivo growth of BxPC-3 pancreatic cancer xenografts; design: species or system human; settings: BxPC-3-RFP; 35 days after inoculation; Pter and/or CRC
[3] = system: A2058 cells isolated from tumor-bearing mice; assay: Chemosensitization of cultured A2058 cells isolated from xenografts; assay type: cell-based, human; settings: A2058; 72 h-cultured; PL 1 μM, Chemo 0.25 μM PAC.PBP; Pter = in vivo pretreatment
Description: FIG. 5. Chemosensitization effect of GSH depletion (A) or sod1-AS (B) in melanoma cells isolated from Pter-treated mice. Melanoma cells were cultured as in FIG. 1C. PAC.PBP (100 ng/ml) was added to the culture flasks 24 h after seeding. […] Data are mean values±SD for 5-6 different experiments (*p<0.01, comparing all experimental conditions vs controls).
FIGS. 18-25. Effect of piperlongumine and I-BET762, as GSH depleting and chemosensitizing agents, in in vitro growing human melanoma, pancreatic, breast, lung, liver, prostate, ovarian, and colorectal cancer cells. Cancer cells, isolated from Pter-treated tumor-bearing mice, were cultured as indicated under Methods. Chemotherapy (0.25 μM PAC.PBP in A2058 melanoma and MDA-MB-231 breast carcinoma cells; 0.125 μM PAC.PBP and 25 μM GTB in AsPC-1 pancreatic cancer cells; 1 μM VRB and 15 μM cisPt in A459 lung carcinoma cells; 0.15 μM DXR in HepG2 hepatocellular carcinoma cells; 15 nM DCT in PC-3 prostate carcinoma cells; 0.15 μM PAC.PBP and 25 μM CarboPt in SK-OV-3 ovarian carcinoma cells; 3 μM 5-FU, 1 μM FA and 0.6 μM IRI in HT-29 colorectal carcinoma cells) was added to the cultured flasks 24 h after seeding. PL (1 μM in A2058 and AsPC-1 cells; 0.5 μM in A549 and HT-29 cells; 0.2 μM in HepG2, PC-3, and SK-OV-3 cells; 0.1 μM in MDA-MB-231 cells) or I-BET762 (0.5 μM in HT-29 cells; 0.2 μM in A2058, AsPC-1, HepG2, PC-3, and SK-OV-3 cells; 0.1 μM in A549 and MDA-MB-231 cells) were added 6 h later. Data are mean values±SD for 4-5 different experiments per cell line (*p<0.05 and **p<0.01, comparing all experimental conditions versus control. PL, piperlongumine; PAC.PBP, paclitaxel protein-bound particles; GTB, gemcitabine; DXR, doxorubicin; VRB, vinorelbin; CisPt, cisplatin; docetaxel, DCT; CarboPt, carboplatin; 5-FU, 5-fluoracil; FA, folinic acid; IRI, irinotecan; 5-FU+FA+IRI=FOLFIRI).
Human A2058, MeWo and MelJuso melanoma cells, and mouse AtT-20 pituitary corticotroph tumor cells were from the American Type Culture Collection (ATCC). Human HEMa-LP epidermal melanocytes were from Life Technologies (Grand Island, N.Y.). Human MDA-MB-231 (triple negative: ER−, PR−, HER2−) and MCF-7 (ER+, PR+, HER2−) breast adenocarcinoma, A549 lung adenocarcinoma (NSCLC), HepG2 hepatocellular carcinoma, LNCaP (AR+) and PC-3 (AR−) prostate adenocarcinoma, SK-OV-3 epithelial ovarian carcinoma, and HT-29 and Caco-2 colorectal carcinoma cells were from the American Type Culture Collection. Cells were grown in Dulbecco's modified Eagle's medium (DMEM) (Invitrogen, San Diego, Calif.), pH 7.4, supplemented with 10% heat-inactivated FCS (Biochrom KG, Berlin, Germany), 100 units/ml penicillin and 100 μg/ml streptomycin. Cells were plated, at a density of 20,000 cells/cm2, and cultured at 37° C. in a humidified atmosphere with 5% CO2. Cells were harvested by incubation for 5 min with 0.05% (w/v) trypsin (Sigma, St. Louis, Mo.) in PBS (10 mM sodium phosphate, 4 mM KCl, 137 mM NaCl), pH 7.4, containing 0.3 mM EDTA, followed by the addition of 10% FCS to inactivate the trypsin. Cell numbers were determined using a Coulter Counter (Coulter Electronic Inc., Miami, Fla.). Cells were allowed to attach for 12 h before any treatment addition. Cellular viability was assessed as previously reported (Mena, S. et al. Clin Cancer Res 13, 2658-2666 (2007)), by measuring trypan blue exclusion and leakage of lactate dehydrogenase activity.
Isolation of Tumor Cells from Mouse Xenografts Using Enzymatic Digestion and a double Ficoll gradient. […]

[4] = system: CRH mRNA; assay: CRH expression in the hypothalamic PVN (in situ hybridization); assay type: in vivo; settings: melanoma-bearing mice; significant in MeWo- and MelJuso-bearing mice
Description: CRH Expression in the Brain (In Situ Hybridization).
Sections of 10 μm of the PVN were cut according to a mouse brain atlas (Allen Institute for brain science, http://www.brain-map.org) on a cryostat, mounted on polysine microscope slides (Menzel-Glazer, Braunschweig, Germany), and stored at −80° C. for 24 h. Then sections were fixed in 4% paraformaldehyde, further permeabilized by proteinase K treatment, acetylated twice with 0.25% acetic anhydride in 0.1 M triethanolamine, and dehydrated in a graded ethanol series. Hybridization, carried out as described before (Lachize, S. et al. Proc Natl Acad Sci USA 106, 8038-8042 (2009)), was performed using specific 48-mer, ^35S-labeled oligonucleotide probes for murine CRH mRNA (5′-GGCCCGCGGCGCTCCAGAGACGGATCCCCTGCTCAGCAGGGCCCTGCA-3′) (SEQ ID NO: 1). Hybridized slices were exposed to BioMax MR film (Kodak, Rochester, N.Y.). The mRNA expression of CRH in the PVN was quantified as gray density minus background in digitized images using the NIH ImageJ 1.6 program (http://rsb.info.nih.gov/ij). Bilateral measures were taken from two to four PVN sections for each mouse, which were pooled to provide individual means per mouse. For tissue background, the optical density of a nonhybridized region outside the PVN was measured.

With `COc1cc(/C=C/c2ccc(O)cc2)cc(OC)c1` [Pter, trans-3,5-dimethoxy-4′-hydroxystilbene] the “inhibition of tumor growth” value ([1]; A2058, day 35, 30 mg Pter/kg i.v. every 48 h, vs controls) was “approx. 70%”, the Tumor vol. ([1]; A2058-RFP, 35 days after inoculation, Pter 30 mg/kg i.v. every 48 h and/or CRC infusion 0.3 μg/h) was 258 ± 66* mm^3 and the Tumor vol. [2] was 226 ± 63* mm^3. For the same compound, the Viable cells [3] was 1015 ± 144 ×10^6 and the “CRH mRNA expression in the hypothalamic PVN” value [4] was “further decrease”.
